The values that follow come from patent US8722703B2, “Fused amino pyridines for the treatment of brain tumors” (Curis, Inc., priority 2009, dated 2014).

Data set [1] in a line: Mouse brain concentrations after oral 30 mg/Kg in nude mice with U87MG xenografts. It counts as in vivo. The note with it: oral (30 mg/Kg) delivery, U87MG xenografts; for concentration at 0 hr / concentration at 0.5 hr / concentration at 1 hr / concentration at 3 hr / concentration at 6 hr / concentration at 24 hr: female, athymic nude (CD-1 nu/nu), mouse, brain, read-out: HSP90 Compounds in Mouse Brain.

In data set [2] the test system is H1975 orthotopic lung tumor. The data set is described as follows: Efficacy study in the H1975 orthotopic lung tumor (NSCLC) model. The format is in vivo, nude mice. The note with it: Compound-15 120 mg/kg orally once every two days, erlotinib 50 mg/kg orally once a day, 5 wk. As for the experimental part:
Dose-dependent efficacy study of Compound-15 in H1975 orthotopic lung tumor model (n=11): Mice were treated with Compound-15 (20, 40, 80, and 120 mg/kg) starting 4 day after tumor implantation.

The subject of data set [3] is A549 orthotopic lung tumor. The data set is described as follows: Efficacy study in A549 orthotopic lung tumor model. The format is in vivo, nude mice. The note with it: Compound-15 120 mg/kg orally once every two days, erlotinib 50 mg/kg orally once a day, 4 wk.
A further data set deals with H1975 intracranial tumor. The data set is described as follows: Efficacy study in H1975 intracranial metastasis model. The conditions noted are these: Compound-15 120 mg/kg orally once every two days, lapatinib 75 mg/kg orally twice a day, 4 wk. The format is in vivo, nude mice.
A further data set deals with HSP90 (Homo sapiens, UniProt P07900). The data set is described as follows: HSP90 competition binding (fluorescence polarization) assay. The source says:
(b) HSP90 Competition Binding (Fluorescence Polarization) Assay.
A fluorescein isothiocyanate (FITC) labeled GM was purchase from InvivoGen (ant-fgl-1). The interaction between HSP90 and labeled GM forms the basis for the fluorescence polarization assay. A free and fast-tumbling FITC labeled GM emits random light with respect to the plane of polarization plane of excited light, resulting in a lower polarization degree (mP) value. When GM is bound to HSP90, the complex tumble slower and the emitted light is polarized, resulting in a higher mP value. […] The assay buffer contained 20 mM HEPES (pH 7.3), 50 mM KCl, 1 mM DTT, 50 mM MgCl2, 20 mM Na2MoO4, 0.01% NP40 with 0.1 mg/ml bovine gamma-globulin.
In general terms: Fluorescence polarisation rises when a labelled molecule tumbles more slowly, as on binding a larger partner.

One may read the IC50 as the concentration that inhibits the measured activity by half. Read a low IC50 as higher potency.

Turning to `NC(=O)CCCn1c(Sc2cc3c(cc2I)OCO3)nc2c(N)nccc21` [Compound 22], in data set [1], the concentration at 0 hr is 0 ng/g, the concentration at 0.5 hr turned out to be 2.5 ng/g, the concentration at 1 hr amounted to 2.2 ng/g and the concentration at 3 hr turned out to be 3.7 ng/g. Further, in data set [1], the concentration at 6 hr was determined as 0.9 ng/g, the concentration at 24 hr came out at 1.3 ng/g and the “AUC in mouse brain” value came out at 36.7 ng·h/g.

Consider `C#Cc1cccc(Nc2ncnc3cc(OCCOC)c(OCCOC)cc23)c1` [erlotinib, reference compound], for which the animal survival result in data set [2] was “no therapeutic benefit”; in data set [3], “no antitumor effect”.

With `CC(C)(C)CNCCn1c(Sc2cc3c(cc2S(C)(=O)=O)OCO3)nc2c(N)nccc21` [Compound 23], in data set [1], the concentration at 0 hr is 0 ng/g, the concentration at 0.5 hr turned out to be 5.4 ng/g, the concentration at 1 hr was 13.6 ng/g and the concentration at 3 hr was 21.5 ng/g. Moreover, in data set [1], the concentration at 6 hr came to 9.1 ng/g, the concentration at 24 hr was 3 ng/g and the “AUC in mouse brain” value is 231.8 ng·h/g.

`CS(=O)(=O)CCNCc1ccc(-c2ccc3ncnc(Nc4ccc(OCc5cccc(F)c5)c(Cl)c4)c3c2)o1` [lapatinib, reference compound]: the animal survival entry with H1975 intracranial tumor is listed as “lack of lapatinib efficacy”.

Compound `CC(C)(C)CNCCCn1c(Sc2cc3c(cc2Br)OCO3)nc2c(N)nccc21` [Compound 10] had an IC50 on HSP90 of 100 to 1000 nM.

As for `CC(C)(C)CNCCCn1c(Sc2cc3c(cc2I)OCO3)nc2c(N)nccc21` [Compound 11, 2-(6-iodobenzo[d][1,3]dioxol-5-ylthio)-1-(3-(neopentylamino)propyl)-1H-imidazo[4,5-c]pyridin-4-amine], the 50% inhibitory concentration (IC50) on HSP90 was in the range of 100 to 1000 nM.
